Laboratory results published in publication PMC8232621, “Antimicrobial Activity of a Library of Thioxanthones and Their Potential as Efflux Pump Inhibitors” (Pharmaceuticals, 2021).
Where two headings read alike, the source gives them in different places.

Key:
[1] = system: SE03; assay: Antibacterial activity, broth microdilution MIC; format: cell-based, Salmonella enterica serovar Typhimurium SL1344; conditions: Salmonella enterica, read-out: Minimum Inhibitory Concentration (MIC)
Excerpt: (§1) The referred library of thioxanthones was initially tested for their antimicrobial activity against six bacterial strains: the Gram-negative Escherichia coli ATCC 25922, Pseudomonas aeruginosa ATCC 27853 and Salmonella enterica serovar Typhimurium SL1344 (SE03), with the acrA gene deleted, and the Gram-positive Staphylococcus aureus ATCC 29213, Enterococcus faecalis ATCC 29212 and the methicillin and ofloxacin-resistant clinical isolate S. aureus 272123. For the synergy assay, two clinically relevant isolates were used: the extended-spectrum β-lactamase (ESBL)-producing E. coli SA/2 [23] and the vancomycin-resistant E. faecalis (VRE) B3/101 [23]. The antibiotics used were cefotaxime (CTX) and vancomycin (VAN), respectively.
(§2) The minimum inhibitory concentration (MIC) for each compound was determined by broth microdilution method in a 96-well plate according to the Clinical and Laboratory Standard Institute (CLSI) guidelines. The medium used was MHB II. The concentrations tested ranged from 100 µM to 0.195 µM and were prepared from a stock solution of 10 mM in DMSO, for S. aureus 272123 and SE03; for the other strains, the concentrations tested ranged from 64 µg/mL to 4 µg/mL and were prepared from a stock solution of 10 mg/mL in DMSO. DMSO was used in subinhibitory concentrations (1% v/v). The MIC was determined by visual inspection.

[2] = system: S. aureus 272123; assay: Real-time ethidium bromide accumulation assay (efflux pump inhibition); format: cell-based, Staphylococcus aureus; design: key: RFI = (RFtreated − RFuntreated)/RFuntreated at minute 60; conditions: compounds 50 µM, reserpine 25 µM, minute 60, EB 1 µg/mL
Experimental: (§3) The relative fluorescence index (RFI) was calculated based on the means of relative fluorescence units, and theses RFIs are depicted in Table 4.
(§4) The compounds were evaluated for their ability to inhibit the efflux of EB, an efflux pump substrate, in Salmonella enterica serovar Typhimurium SE03 and S. aureus 272123 strains, through real-time fluorimetry, monitoring the intracellular accumulation of EB, an efflux pump substrate. This was determined by the automated method using a CLARIOstar Plus plate reader (BMG Labtech, Ortenberg, Germany). Reserpine and CCCP were applied at 25 µM as positive controls, and the solvent DMSO was applied at 1% v/v. The bacterial strains were incubated in an appropriate culture media (TSB–S. aureus 272123; LB-B–SE03) at 37 °C until they reached an optical density (OD) of 0.6 at 600 nm. The culture was centrifuged at 13,000× g for 3 min, and the pellet was washed and resuspended with phosphate buffered saline (PBS, pH 7.4). The suspension was centrifuged again in the same conditions and resuspended in PBS.
(§5) Then, 50 µL of this solution were transferred into a 96-well black microtiter plate (Greiner Bio-One Hungary Kft, Mosonmagyaróvár, Fertősor, Hungary), and 50 µL of bacterial suspension (OD600 = 0.6) were added to each well. The plates were placed into the CLARIOstar plate reader, and the fluorescence was monitored at excitation and emission wavelengths of 530 nm and 600 nm, respectively, every minute for one hour on a real-time basis. From the real-time data, the activity of the compounds, namely the relative fluorescence index (RFI) of the last time point (minute 60) of the EB accumulation assay, was calculated according to the following equation:(1) RFI=RFtreated−RFuntreated/RFuntreated where RFtreated is the relative fluorescence (RF) at the last time point of EB accumulation curve in the presence of the compound, and RFuntreated is the RF at the last time point of the EB accumulation curve of the untreated control, having only the solvent (DMSO) control. The accumulation curves were designed using Microsoft Excel®. The samples were tested in triplicate, and the RFI presented comes from the average of these three values. The accumulation graphs present the mean of the RF at the last time point. The standard deviation (SD) was calculated automatically and included in the RF graphs.

[3] = system: SE03; assay: as above; format: cell-based, Salmonella enterica serovar Typhimurium SL1344; conditions: compounds 50 µM (compound 12 at 17 µM), CCCP 25 µM, minute 60, EB 1 µg/mL
Experimental: as §3, §4, §5

[4] = system: S. aureus ATCC 29213; assay: Inhibition of biofilm formation (crystal violet); format: cell-based; conditions: Staphylococcus aureus, ATCC29213, 48 h
[5] = system: EZF + CV026; assay: Quorum sensing inhibition assay (pigment production), parallel inoculation; format: cell-based; conditions: disk with 8 µL of 10 mM solution, read-out: Quorum Sensing Inhibition (mm) ± SD
Experimental: Concerning the QS inhibition assay, the sensor strain Chromobacterium violaceum CV026 and the AHL producer strain Sphingomonas paucimobilis Ezf 10-17 (EZF) were inoculated as parallel lines, and the AHL producers Chromobacterium violaceum wild-type 85 (wt85) and Serratia marcescens AS-1 were inoculated as a single line. The interaction between the strains and compounds 2–18 was evaluated as the reduction of pigment production, in millimeters (mm) (Table 5) with promethazine (PMZ) as a positive control.
The QS inhibitory effect of the compounds was examined on the EZF and the sensor CV026 strains, on the wt85 strain, and on S. marcescens. The method used was the parallel inoculation method, where pair combinations of the used sensor strain CV026 and the N-acyl-homoserine lactone (AHL) producing strain EZF were inoculated directly onto the LB*-A agar surface in parallel, at an approximate distance of 5 mm from each other. S. marcescens AS-1 and wt85 were inoculated as a single line. Filter paper disks (7 mm in diameter) were placed on the center of the inoculated line(s) and impregnated with 8 µL of a solution of 10 mM of the compounds. […] The agar plates were incubated at room temperature (20 °C) for 24−48 h. The QS inhibition was accessed visually, through the inhibition of pigment production. The discolored, but intact, bacterial colonies were measured with a ruler.

[6] = system: E. coli ATCC 25922; assay: Antibacterial activity, broth microdilution MIC; format: cell-based; conditions: Escherichia coli, ATCC25922, read-out: Minimum Inhibitory Concentration (MIC)
Excerpt: as §1, §2

[7] = system: P. aeruginosa ATCC 27853; assay: Antibacterial activity, broth microdilution MIC; format: cell-based; conditions: Pseudomonas aeruginosa, ATCC27853, read-out: Minimum Inhibitory Concentration (MIC)
Excerpt: as §1, §2

[8] = system: E. coli SA/2; assay: Synergy with cefotaxime (antibiotic MIC in presence of compound); format: cell-based
Excerpt: as §1
The combined effect of the compounds and clinically relevant antimicrobial drugs was evaluated by determining the antibiotic’s MIC in the presence of each compound. […] The antibiotic tested was serially diluted, whereas the concentration of each compound was kept fixed. […]

[9] = S. aureus ATCC 29213, compounds 100 µM (compound 12 at 50 µM), read-out: Biofilm Inhibition (%) ± SD

CCCOc1ccc(NCCN(CC)CC)c2c(=O)c3ccccc3sc12 [Compound 2]
MIC [1]: > 100 µM | RFI ± SD [2]: 0.75 ± 0.08 | RFI ± SD [3]: −0.02 ± 0.04 | inhibition at 100 µM [4, 9]: 0.53 ± 1.05% | zone of inhibition at 10000 µM [5]: 0 mm

CCCOc1ccc(N2CCCCC2)c2c(=O)c3ccccc3sc12 [Compound 3]
MIC [1]: > 100 µM | RFI ± SD [2]: 1.50 ± 0.04 | RFI ± SD [3]: 0.67 ± 0.01 | inhibition at 100 µM ([4]; read-out: Biofilm Inhibition (%) ± SD, S. aureus ATCC 29213, compounds 100 µM (compound 12 at 50 µM)): > 90% | zone of inhibition at 10000 µM [5]: 31 ± 0.8 mm

CCCOc1ccc(Nc2nc(C)cc(C)n2)c2c(=O)c3ccccc3sc12 [Compound 8, 1-[(4,6-Dimethylpyrimidin-2-yl)amino]-4-propoxy-9H-thioxanthen-9-one]
MIC [6]: > 100 µM | MIC [7]: > 100 µM | MIC [1]: > 100 µM | decrease in the MIC of CTX [8]: 4 fold | RFI ± SD [2]: 0.24 ± 0.07 | RFI ± SD [3]: 0.74 ± 0.08 | inhibition at 100 µM [4, 9]: 0% | zone of inhibition at 10000 µM [5]: 32 ± 0.1 mm

CCCOc1ccc(N2CCNC(=O)C2)c2c(=O)c3ccccc3sc12 [Compound 9, 4-(9-Oxo-4-propoxy-9H-thioxanthen-1-yl)piperazin-2-one]
MIC [6]: > 100 µM | MIC [7]: > 100 µM | MIC [1]: > 100 µM | RFI ± SD [2]: 0.14 ± 0.02 | RFI ± SD [3]: 1.54 ± 0.09 | inhibition at 100 µM [4, 9]: 5.18 ± 1.02% | zone of inhibition at 10000 µM [5]: 0 mm

CCCOc1ccc(NCCO)c2c(=O)c3ccccc3sc12 [Compound 10, 1-[(2-Hydroxyethyl)amino]-4-propoxy-9H-thioxanthen-9-one]
MIC [6]: > 100 µM | MIC [7]: > 100 µM | MIC [1]: > 100 µM | decrease in the MIC of CTX [8]: 4 fold | RFI ± SD [2]: 4.71 ± 0.78 | RFI ± SD [3]: 6.00 ± 0.80 | inhibition at 100 µM [4, 9]: 0% | zone of inhibition at 10000 µM [5]: 0 mm

CCCOc1ccc(NCCN2CCOCC2)c2c(=O)c3ccccc3sc12 [Compound 11, 1-[(2-Morpholinoethyl)amino]-4-propoxy-9H-thioxanthen-9-one]
MIC [6]: > 100 µM | MIC [7]: > 100 µM | MIC [1]: > 100 µM | RFI ± SD [2]: 0.89 ± 0.06 | RFI ± SD [3]: 1.37 ± 0.054 | inhibition at 100 µM [4, 9]: 0% | zone of inhibition at 10000 µM [5]: 0 mm

CCCOc1ccc(NS(=O)(=O)c2ccc(C(=O)O)cc2)c2c(=O)c3ccccc3sc12 [Compound 12, 4-[N-(9-Oxo-4-propoxy-9H-thioxanthen-1-yl)sulfamoyl]benzoic acid]
MIC [6]: > 100 µM | MIC [7]: > 100 µM | MIC [1]: 50 µM | decrease in the MIC of CTX [8]: 16 fold | RFI ± SD [2]: 0.29 ± 0.19 | RFI ± SD [3]: −0.21 ± 0.07 | inhibition at 100 µM [4, 9]: ~53% | zone of inhibition at 10000 µM [5]: 0 mm

CCCOc1ccc(NS(=O)(=O)c2ccc(N)cc2)c2c(=O)c3ccccc3sc12 [Compound 13, 4-Amino-N-(9-oxo-4-propoxy-9H-thioxanthen-1-yl)benzenesulfonamide]
MIC [6]: > 100 µM | MIC [7]: > 100 µM | MIC [1]: > 100 µM | RFI ± SD [2]: −0.18 ± 0.05 | RFI ± SD [3]: 1.23 ± 0.18 | inhibition at 100 µM [4, 9]: 0.42 ± 1.36% | zone of inhibition at 10000 µM [5]: 51 ± 0.1 mm

CCCOc1ccc(Br)c2c(=O)c3ccccc3sc12 [Compound 14, 1-Bromo-4-propoxy-9H-thioxanthen-9-one]
MIC [6]: > 100 µM | MIC [7]: > 100 µM | MIC [1]: > 100 µM | RFI ± SD [2]: 1.13 ± 0.13 | RFI ± SD [3]: 0.87 ± 0.11 | inhibition at 100 µM [4, 9]: 0% | zone of inhibition at 10000 µM [5]: 0 mm

CCCOc1ccc2ncnc3c2c1Sc1ccccc1-3 [Compound 15]
MIC [6]: > 100 µM | MIC [7]: > 100 µM | MIC [1]: > 100 µM | RFI ± SD [2]: −0.07 ± 0.50 | RFI ± SD [3]: 0.54 ± 0.11 | inhibition at 100 µM [4, 9]: 0% | zone of inhibition at 10000 µM [5]: 50 ± 0.1 mm

CCCOc1ccc2nc(N)nc3c2c1Sc1ccccc1-3 [Compound 16]
MIC [6]: > 100 µM | MIC [7]: > 100 µM | MIC [1]: > 100 µM | RFI ± SD [2]: 0.96 ± 0.27 | RFI ± SD [3]: 7.52 ± 0.01 | inhibition at 100 µM [4, 9]: 0% | zone of inhibition at 10000 µM [5]: 29 ± 0.8 mm

CCCOc1ccc2nc(NCc3ccccc3Cl)nc3c2c1Sc1ccccc1-3 [Compound 17]
MIC [6]: > 100 µM | MIC [7]: > 100 µM | MIC [1]: > 100 µM | RFI ± SD [2]: 9.69 ± 0.95 | RFI ± SD [3]: 25.51 ± 2.93 | inhibition at 100 µM [4, 9]: 0% | zone of inhibition at 10000 µM [5]: 49 ± 0.5 mm

CCCOc1ccc2c3c(n/c(=N\c4ccccc4C)n2-c2ccccc2C)-c2ccccc2Sc13 [Compound 18]
MIC [6]: > 100 µM | MIC [7]: > 100 µM | MIC [1]: > 100 µM | decrease in the MIC of CTX [8]: 4 fold | RFI ± SD [2]: 0.20 ± 0.03 | RFI ± SD [3]: 0.20 ± 0.02 | inhibition at 100 µM [4, 9]: 19.7 ± 7.46% | zone of inhibition at 10000 µM [5]: 0 mm
